Measurements taken from ChEMBL document CHEMBL1156829 (Proc Natl Acad Sci U S A, 2008).

Experiments:
[1] = NOVARTIS: Cytotoxicity against human hepatocellular carcinoma cell line (Huh7); type: toxicity, cell-based, Huh-7; details: Huh7 cells (hepatocellular carcinoma cell line)
[2] = system: Plasmodium falciparum; assay: NOVARTIS: Inhibition of Plasmodium falciparum W2 (drug-resistant) proliferation in erythrocyte-based infection assay; type: functional, organism-based
[3] = system: Plasmodium falciparum; assay: NOVARTIS: Inhibition of Plasmodium falciparum 3D7 (drug-susceptible) proliferation in erythrocyte-based infection assay; type: functional, organism-based; details: Plasmodium falciparum, 3D7
[4] = Plasmodium falciparum, W2, read-out: EC50

SMILES	CC50 [1]	EC50 [2]	EC50 [3]	EC50 [2, 4]
N=C(N)NN=Cc1cc(Cl)ccc1O	> 1.86 µM	No fit	0.0128 µM	
O=c1c(=Cc2ccc(Cl)cc2)sc2nc3ccccc3n12	> 10 µM		> 0.436 µM	0.19 µM
COC(=O)COc1ccc(/C=C2/SC(=Nc3ccc(F)cc3)NC2=O)cc1	> 100 µM		> 12.5 µM	1.85 µM
O=C1c2ccccc2-c2nnc(-c3ccc(Br)cc3)cc21	> 100 µM		> 2.5 µM	1.89 µM
Clc1ncnc2ncn(Cc3ccccc3)c12	58.1 µM		1.65 µM	1.09 µM
CCOC(=O)C1=C(c2ccccc2)N=c2sc(=Cc3cc(OC)c(OC)c(OC)c3)c(=O)n2C1c1c(OC)ccc2ccccc12 (stereo not given)	> 100 µM	No fit	> 7.82 µM	
Oc1ccccc1CN1CCN(C(c2ccccc2)c2ccccc2)CC1	8.92 µM		0.744 µM	0.166 µM
O=S(=O)(Oc1ccc2ccccc2c1Cc1c(OS(=O)(=O)c2ccccc2)ccc2ccccc12)c1ccccc1	> 100 µM		> 12.5 µM	1.84 µM
Cc1ccc(C(C(=O)NC2CCCCC2)N(C(=O)Cn2nnc3ccccc32)c2ccc(S(=O)(=O)NCC3CCCO3)cc2)o1 (stereo not given)	> 100 µM		> 12.3 µM	1.91 µM
O=C(O)C=CC(=O)N(C1CCCCC1)C1CCCCC1	> 100 µM		> 12.5 µM	1.86 µM
COC(=O)c1sc2nc(CN3CCC(C)CC3)ccc2c1NC(=O)c1ccc(C)s1	> 100 µM	No fit	9.7 µM	
CCOC(=O)c1cnc2c(OC)cccc2c1Nc1cccc(C(F)(F)F)c1	26 µM	No fit	0.926 µM	
CCOC(=O)c1sc2nc(N)c(C#N)c(-c3cccs3)c2c1N	> 100 µM	No fit	1.13 µM	
Cc1cc(C)c(S(=O)(=O)N2CCC(NC(=O)c3ccccc3)CC2)c(C)c1	> 100 µM	No fit	1.07 µM	
CCc1c(C#N)c(N)nc(SCC(=O)c2ccc(C)cc2)c1C#N	> 100 µM	No fit	1.2 µM	
COc1ccc(C(OCC(=O)N2CCN(Cc3ccccc3)CC2)c2ccc(F)cc2)cn1 (stereo not given)	> 10 µM		0.733 µM	0.187 µM
CCCc1cc(-c2onc(C)c2-c2ccc(C(=O)OCC)o2)c(O)cc1OC	18.5 µM		0.413 µM	0.346 µM
COc1cccc(CNCCCCCCCCCCCCNCc2cccc(OC)c2O)c1O	53.5 µM		0.819 µM	1.01 µM
C=CC[n+]1cccc2c3ccccc3ccc21	> 100 µM		1.72 µM	1.9 µM
O=C1NC(=S)N/C1=C/c1cccc(Oc2ccccc2)c1	> 10 µM		1.89 µM	> 0.191 µM
Cc1ccc(-n2nnnc2SCc2nc(-c3cccc([N+](=O)[O-])c3)no2)c(C)c1	> 100 µM		> 4.69 µM	1.85 µM
N#Cc1c(N)nc(SCC(=O)c2ccc([N+](=O)[O-])cc2)c(C#N)c1-c1ccccc1	> 100 µM		4.81 µM	1.84 µM
Fc1ccccc1Nc1nc(NCC2CCCO2)c2ccccc2n1 (stereo not given)	34.2 µM		0.669 µM	0.637 µM
COc1cccc(-c2nc3c(OC)ccc(OC)c3cc2CNCC(C)(C)CN(C)C)c1	> 10 µM		0.244 µM	0.186 µM
CCCCN1Cc2ccc(C(N)=O)cc2N=C1C1CC1	> 11.4 µM		0.062 µM	0.212 µM

SMILES	CC50 [1]	EC50 [2]	EC50 [3]	EC50 [2, 4]
COc1ccc(-n2c(SC(C)C)nc3sc4c(c3c2=O)CCN(C)C4)cc1	> 100 µM		2.21 µM	1.85 µM
CC(C)Cc1ccc(-c2csc(NC(=O)C3C4CCC(C4)C3C(=O)O)n2)cc1 (stereo not given)	> 100 µM		0.772 µM	1.85 µM
O=C(Cc1ccsc1)NC1CCN(CC(O)CN(Cc2ccccc2)S(=O)(=O)c2ccccc2)C1 (stereo not given)	> 10 µM		0.411 µM	0.188 µM
COc1ccc2nc(C)cc(Nc3ccc(Br)cc3)c2c1	19.7 µM		0.201 µM	0.369 µM
COc1ccc(-n2c(CNC(=O)c3cccc4ccccc34)n[nH]c2=S)cc1	> 100 µM		1.1 µM	1.89 µM
Cc1cc(Nc2cc(Cl)cc(Cl)c2)n2nc(C)nc2n1	> 100 µM		1.33 µM	1.87 µM
CCOc1cc(C(=O)Nc2ccc(-c3nc4ccccc4[nH]3)cc2)cc(OCC)c1OCC	40.1 µM		0.229 µM	0.763 µM
O=C(CCl)NCCCCNc1ccnc2cc(Cl)ccc12	> 10 µM	No fit	> 0.811 µM	
CCCC(=O)Oc1ccccc1-c1nc2cc(C)ccn2c1NC(C)(C)CC(C)(C)C	> 100 µM		3.55 µM	1.89 µM
O=C(c1ccc([N+](=O)[O-])cc1)C1C(C(=O)c2ccc(F)cc2)C2(C(=O)Nc3ccccc32)C2C=Cc3ccccc3N12 (stereo not given)	> 10 µM		> 0.622 µM	0.188 µM
CC[n+]1c(C)cc2c(sc3ccccc32)c1C	> 100 µM		1.05 µM	1.87 µM
Cn1c(=O)[nH]c(=O)c2c1nc(N1CCCCCC1)n2CC(O)COc1ccc([N+](=O)[O-])cc1 (stereo not given)	> 100 µM		> 12.5 µM	1.86 µM
CCCCCOC(=O)C1=C(C)NC2=C(C(=O)CC(C)(C)C2)C1c1ccncc1 (stereo not given)	> 100 µM		5.19 µM	1.86 µM
Cc1cccc(NC(=O)C2C3C=CC4(O3)C2C(=O)N(CC2COc3ccccc3O2)C4C(=O)NC2CCCC(C)C2C)c1 (stereo not given)	> 100 µM		> 8.07 µM	1.86 µM
Cc1nc(C23CC4CC(CC(C4)C2)C3)cs1	> 100 µM		> 12.5 µM	1.86 µM
CCCCCCc1cc2cc(-c3nc4ccccc4[nH]3)c(=Nc3ccccc3C)oc2cc1O	> 100 µM	No fit	2.12 µM	
COc1cccc(CCOc2ccc3c(c2)C(=O)N(C(C(=O)NC(C)(C)C)c2cccc(OC)c2)C(CO)C(=O)N3)c1 (stereo not given)	> 9.1 µM		0.153 µM	0.169 µM
CC(C)(C)c1cc(CCC(=O)Nc2c3c(nc4ccccc24)N(c2cccc(Cl)c2)CC3)cc(C(C)(C)C)c1O	> 100 µM	No fit	6.65 µM	
CC(c1nc2ccccc2c(=O)n1C)N1CCN(C(=O)C(C)(C)C)CC1 (stereo not given)	> 10 µM		0.185 µM	0.191 µM
CSc1nnc(NC(=O)C2CC2)s1	> 100 µM		> 12.5 µM	1.91 µM
O=C(CSc1nc2ccccc2c(=O)n1CCCN1CCOCC1)Nc1cccc(S(=O)(=O)N2CCCCCC2)c1	62.1 µM		0.47 µM	1.18 µM
Cc1ccn(CC(=O)N2CCOc3c(cc(-c4csc5ccccc45)cc3OCCc3ccccn3)C2)n1	39 µM		0.823 µM	0.73 µM
O=C(NN=Cc1ccc(O)cc1O)c1ccncc1	> 100 µM		4.75 µM	1.88 µM
CC(=O)N(C1=C(N(C)C)C(=O)c2ccccc2C1=O)c1cc(C)cc(C)c1	2.23 µM		0.023 µM	0.0415 µM
Cc1nc2cc(-c3ccc(Br)cc3)nn2c(O)c1C	> 100 µM	No fit	2.74 µM	
